Measured values as given in article PMC6556873, “Rapid Covalent-Probe Discovery by Electrophile-Fragment Screening” (Journal of the American Chemical Society, 2019).
Where two headings read alike, the source gives them in different places.

How the values were obtained:
in vitro [1] = experiment: in vitro; set-up: species or system CCD841, HEK293; settings: human, hb2 cells, read-out: HB-2 Cells Viability (%)
PCAF = target: T1, PCAF (Homo sapiens, UniProt Q92831); set-up: Intact protein LC/MS covalent labelling, fragments in pools of five, 200 uM each, 4 °C; settings: 24 h, 4 °C, pool of five; 200 µM; covalent
T1 construct: gene KAT2B

BSA = target: T2, BSA (Bos taurus, UniProt P02769); set-up: Intact protein LC/MS covalent labelling, fragments in pools of five, 200 uM each, 4 °C; settings: 24 h, 4 °C, pool of five; 200 µM; covalent
T2 construct: gene ALB

NUDT7 = target: T3, NUDT7 (Homo sapiens, UniProt P0C024); set-up: Intact protein LC/MS covalent labelling, fragments in pools of five, 200 uM each, 4 °C; settings: 24 h, 4 °C, pool of five; 200 µM; covalent
T3 construct: residues 14-235, E. coli, pNIC28-Bsa4, N-terminal His6 tag removed by TEV, construct 26672 Da

OTUB2 (OTUB2A) = target: T4, OTUB2 (OTUB2A) (Homo sapiens, UniProt Q96DC9); set-up: Intact protein LC/MS covalent labelling, fragments in pools of five, 200 uM each, 4 °C; settings: 24 h, 4 °C, pool of five; 200 µM; covalent
T4 construct: full length residues 1-234, E. coli BL21(DE3)-R3, His tag removed by TEV, construct 27312 Da
T4 sequence (Q96DC9 1-234): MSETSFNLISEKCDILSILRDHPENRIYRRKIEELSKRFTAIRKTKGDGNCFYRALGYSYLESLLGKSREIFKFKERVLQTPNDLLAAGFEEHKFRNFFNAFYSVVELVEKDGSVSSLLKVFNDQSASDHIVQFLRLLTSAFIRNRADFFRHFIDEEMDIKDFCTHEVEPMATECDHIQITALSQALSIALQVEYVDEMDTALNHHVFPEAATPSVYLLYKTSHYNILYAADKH

in vitro [2] = experiment: in vitro; set-up: species or system HB2, CCD841; settings: human, hek293 cells
in vitro [3] = experiment: in vitro; set-up: species or system HB2, HEK293; settings: human, ccd841 cells

T3 sequence (P0C024 14-235): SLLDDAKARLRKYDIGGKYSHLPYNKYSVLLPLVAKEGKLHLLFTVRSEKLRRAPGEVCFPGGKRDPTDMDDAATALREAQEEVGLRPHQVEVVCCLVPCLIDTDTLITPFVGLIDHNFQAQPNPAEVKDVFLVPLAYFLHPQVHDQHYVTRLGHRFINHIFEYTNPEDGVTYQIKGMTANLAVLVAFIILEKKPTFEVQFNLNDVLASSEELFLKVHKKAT
T2 sequence (P02769 whole entry, the tested form may be a part): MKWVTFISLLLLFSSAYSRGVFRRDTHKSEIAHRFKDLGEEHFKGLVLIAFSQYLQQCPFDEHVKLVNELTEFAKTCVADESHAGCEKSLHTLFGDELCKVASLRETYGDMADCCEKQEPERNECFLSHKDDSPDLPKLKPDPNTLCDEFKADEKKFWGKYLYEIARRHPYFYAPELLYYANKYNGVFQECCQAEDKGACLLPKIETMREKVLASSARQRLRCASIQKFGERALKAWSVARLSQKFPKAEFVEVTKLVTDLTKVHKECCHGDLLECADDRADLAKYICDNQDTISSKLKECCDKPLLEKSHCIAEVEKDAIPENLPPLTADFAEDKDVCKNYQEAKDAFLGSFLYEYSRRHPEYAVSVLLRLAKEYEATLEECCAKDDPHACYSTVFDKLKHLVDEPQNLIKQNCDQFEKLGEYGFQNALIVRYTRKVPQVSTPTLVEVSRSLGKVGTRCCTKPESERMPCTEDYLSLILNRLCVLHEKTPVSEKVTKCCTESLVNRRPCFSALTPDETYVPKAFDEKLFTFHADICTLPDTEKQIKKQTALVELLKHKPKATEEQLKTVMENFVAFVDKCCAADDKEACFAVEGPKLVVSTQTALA
T1 sequence (Q92831 whole entry, the tested form may be a part): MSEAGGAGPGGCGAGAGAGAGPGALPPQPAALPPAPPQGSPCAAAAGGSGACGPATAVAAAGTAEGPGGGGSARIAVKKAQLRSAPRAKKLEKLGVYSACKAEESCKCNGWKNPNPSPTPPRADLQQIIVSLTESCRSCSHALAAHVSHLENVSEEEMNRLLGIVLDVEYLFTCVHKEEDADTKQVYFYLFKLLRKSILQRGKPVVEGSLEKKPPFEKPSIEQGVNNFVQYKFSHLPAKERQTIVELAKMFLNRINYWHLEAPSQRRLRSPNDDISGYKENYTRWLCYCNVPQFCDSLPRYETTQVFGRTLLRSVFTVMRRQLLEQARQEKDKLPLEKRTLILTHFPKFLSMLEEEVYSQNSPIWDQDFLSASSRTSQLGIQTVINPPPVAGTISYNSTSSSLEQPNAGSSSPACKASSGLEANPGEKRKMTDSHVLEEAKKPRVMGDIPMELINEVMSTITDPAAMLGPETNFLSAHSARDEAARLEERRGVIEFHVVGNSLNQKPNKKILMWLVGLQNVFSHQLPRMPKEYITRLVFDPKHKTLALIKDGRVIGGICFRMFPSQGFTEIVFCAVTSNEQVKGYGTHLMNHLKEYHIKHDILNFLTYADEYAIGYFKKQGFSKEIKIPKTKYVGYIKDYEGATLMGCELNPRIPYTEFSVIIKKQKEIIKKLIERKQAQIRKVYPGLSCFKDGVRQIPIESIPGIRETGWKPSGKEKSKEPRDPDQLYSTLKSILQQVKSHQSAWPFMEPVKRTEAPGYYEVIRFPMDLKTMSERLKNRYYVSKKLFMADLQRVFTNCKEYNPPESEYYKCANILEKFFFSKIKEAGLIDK

| SMILES | viability at 48 h, 10 µM (in vitro [1]) | PCAF (PCAF) | BSA (BSA) | NUDT7 (NUDT7) | OTUB2 (OTUB2 (OTUB2A)) | viability at 48 h, 10 µM (in vitro [2]) | viability at 48 h, 10 µM (in vitro [3]) |
| --- | --- | --- | --- | --- | --- | --- | --- |
| CC(NC(=O)CCl)c1cccc2ccccc12 (centres unmarked) [PCM-0102275] | 61.6% | 0 | 0 | 0.32 | 0.73 | 47.3% | 70.5% |
| C=CCNC(=O)NC(=O)CCl [PCM-0102709] | 90% | 0 | 0 | 0 | 0 | 75.3% | 77.7% |
| C=CC(=O)NCC1CC12CCOCC2 (centres unmarked) [PCM-0102481] | 97% | 0 | 0 | 0 | 0 | 103% | 110% |
| C=CC(=O)N1Cc2ccccc2OC(C)(C)C1 [PCM-0102927] | 104% | 0 | 0 | 0 | 0 | 93.4% | 111% |
| CN(Cc1ccc(Cl)cc1)C(=O)CCl [PCM-0102344] | 4.3% | 0 | 0 | 0.34 | 0 | 2.1% | 24% |
| N#CSc1ccc(NC(=O)CCl)c(F)c1 [PCM-0102548] | 19.2% | 0 | 0 | 0 | 0.09 | 55.2% | 26.5% |
| CN(CC(=O)NC(C)(C)C)C(=O)CCl [PCM-0102259] | 97.2% | 0 | 0 | 0 | 0 | 69% | 85.2% |
| N#Cc1c(NC(=O)CCl)sc2c1CCCC2 [PCM-0102580] | 77.2% | 0 | 0 | 0.72 | 0.1 | 67.4% | 78% |
| CC(c1nc2ccccc2s1)N(C)C(=O)CCl (centres unmarked) [PCM-0102793] | 4.3% | 0 | 0 | 0 | 0.19 | 1% | 26.1% |
| C=CC(=O)Nc1nc(-c2ccccc2C)cs1 [PCM-0102845] | 107% | 0 | 0 | 0 | 0 | 93.4% | 106% |
| O=C(CCl)NNC(=O)c1cccs1 [PCM-0102426] | 86% | 0 | 0 | 0 | 0.6 | 82.8% | 88.7% |
| C=CC(=O)Nc1cccc(C#N)c1 [PCM-0102956] | 104% | 0 | 0 | 0 | 0 | 74.5% | 102% |
| C=CC(=O)NCC1C2Cc3ccccc3C12 (centres unmarked) [PCM-0102769] | 94.3% | 0 | 0 | 0 | 0.21 | 79.1% | 97.5% |
| CSc1ccc(NC(=O)CCl)cc1 [PCM-0102772] | 15.2% | 0 | 0 | 0.13 | 0.28 | 3% | 51.2% |
